Experimental data published in patent publication US20240294499A1, “TARGETED PROTEIN DEGRADATION USING BIFUNCTIONAL COMPOUNDS THAT BIND UBIQUITIN LIGASE AND TARGET MCL-1 PROTEIN” (Captor Therapeutics S.A., priority 2021, published 2024).

Experiments:
[1] = test system: hiPSC-CM (iCELL Cardiomyocytes); test: Cardiac safety: hiPSC-CM cell viability assay (CTG); assay type: cell-based, human; settings: viability, CTG assay, treatment until day 14
Excerpt: The effect of various compounds of the invention and a reference compounds AZD5991 and MIK665 on cardiac safety was investigated by the evaluation of viability with CTG assay (Promega; cat #G7572) in iCELL™ Cardiomyocytes from FUJIFILM Cellular Dynamics (Catalog number: 11713).
Cells were thawed, counted using an automated cell counter (TC20, Bio-Rad) and seeded in 96 well plates (Greiner-BioOne; 655098) previously coated with 0.1% gelatin (Sigma-Aldrich; G1890) using Plating Medium (#M1001) following the instructions of the iCELL cardiomyocytes User Guide. Forty ml of Plating Medium was used to equally distribute the cells in four 96 well plates. Cells were then placed in the incubator at 37° C., 5% CO2 and left undisturbed for 48 hours. Compounds were serially diluted in DMSO and then further diluted to final assay concentration using maintenance medium (#M1003). Final DMSO concentration was 0.5%. Forty eight hours after plating, non-adherent cells and debris were washed as described in the User Guide. Plating medium was then replaced with maintenance medium containing diluted compounds or DMSO (as control). Medium was then changed every 2 days with fresh medium containing compounds or DMSO until the end of the treatment. On day 14, only medium without compounds was used immediately before the CTG assay. Luminescence signal was measured using a CLARIOstar Plus Multi-Mode Microplate Reader (574-590 nm).

iCELL Cardiomyocytes = test: Cardiac safety: caspase 3 and 7 activation (Caspase-Glo 3/7) in iCELL Cardiomyocytes; assay type: cell-based; settings: 1.2 uM, 24 hours incubation, vs DMSO
Excerpt: The effect of various compounds of the invention and a reference compound AZD5991 on cardiac safety was investigated by the evaluation of caspase 3 and 7 activation using Caspase-Glo 3/7 Assay (Promega; G8092) in iCELL™ Cardiomyocytes from FUJIFILM Cellular Dynamics (Catalog number: 11713). In the Caspase-Glo® 3/7 Assay, the luminescence (measured as Relative Luciferase Units, RLU) is proportional to the amount of caspase activity present in each sample.
The assay is initiated by thawing and seeding iCell® Cardiomyocytes as specified in the User Guide. After 48 hours, the cells are washed to remove unattached cells and debris and immediately treated with compounds or DMSO diluted in the maintenance medium (FCDI; cat: M1003). Compound concentrations used in this assay: 7 points 1/3 dilution curve starting at 100 uM. After 24 hours of incubation with compounds, caspase activity is measured by the addition of the Caspase-Glo® 3/7 Reagent followed by the luminescence measurement.
The analysis of the results is performed by calculation of the fold change in caspase 3/7 activity at a given compound concentration. Fold change is calculated with the formula: […]
where: • RLU Xi is the Relative Luciferase Units of sample I; • RLU BG is the Background Relative Luciferase Units; • RLU C is the Relative Luciferase Units of Control (DMSO).
The experiments were performed in technical duplicates.

[2] = test system: iPSC-derived cardiomyocytes (iPSC-CMs); test: caspase 3/7 activity in iPSC-derived cardiomyocytes; assay type: cell-based; settings: 100 μM, FIG. 5

Molecule: Cc1c2c(nn1C)CSCc1cc(n(C)n1)CSc1cc(c3ccccc3c1)OCCCc1c(C(=O)O)n(C)c3c-2c(Cl)ccc13 [AZD5991, reference compound]
- IC50 ([1]; Homo sapiens, Cardiomyocyte, 336 h, read-out: Average pIC50 by molecule hiPSC-CM (converted)): 0.631 µM
- Fold change at 1.2 uM (caspase 3/7 activity in cardiomyocytes) (iCELL Cardiomyocytes): 2.9 ± 0.5

Molecule: MIK665 [reference compound]
- Average pIC50 by molecule hiPSC-CM [1]: 6.9

Molecule: Cc1c2c(nn1C)CSCc1cc(n(C)n1)CSc1cc(c3ccccc3c1)OCCCc1c(C(=O)O)n(C)c3c-2c(Cl)ccc13 [AZD-5991]
- cell death in iPSC-CMs (caspase 3/7 assay, concentration point not displayed) [2]: excessive cell death
